Reference: PubChem BioAssay AID344 (DTP/NCI, 2004)
Values joined by “and” are separate entries in the source; they are usually repeats but may differ in a detail not shown here. Equal entries are not always repeated. Toxic doses and inconclusive results are not listed.

System: mice, LPC-1 plasma cell tumor ip, median survival T/C
Experiment: NCI In Vivo Anticancer Drug Screen. Data for tumor model Lieberman Plasma Cell No. 1 (LPC-1) (intraperitoneal) in unknown mice
Settings: endpoint: median survival time, higher = longer survival
Protocol: The antitumor activity of compounds was measured in mice bearing transplantable tumors. Survival or tumor size were measured and the results are expressed as the measurement made in the treated group (T) divided by the measurement made in the vehicle treated control group (C). The tumor model used in this assay is Lieberman Plasma Cell No. 1 (LPC-1) (intraperitoneal) in unknown mice

[1] = dose: 2.0 mg/kg/injection, schedule: Q01DX028 (sc), vehicle: saline
[2] = dose: 4.0 mg/kg/injection, schedule: Q01DX028 (sc), vehicle: saline
[3] = dose: 75.0 mg/kg/injection, schedule: Q01DX028 (sc), vehicle: carboxymethylcellulose (CMC)
[4] = dose: 150.0 mg/kg/injection, schedule: Q01DX028 (sc), vehicle: carboxymethylcellulose (CMC)

CS(=O)(=O)OCCN(CCOS(C)(=O)=O)c1ccc(N=O)cc1
T/C (dose: 0.25 mg/kg/injection, schedule: Q01DX028 (sc), vehicle: saline): 105 % of control
T/C (dose: 0.5 mg/kg/injection, schedule: Q01DX028 (sc), vehicle: saline): 107 % of control
T/C (dose: 1.0 mg/kg/injection, schedule: Q01DX028 (sc), vehicle: saline): 120 % of control
T/C (dose: 1.8 mg/kg/injection, schedule: Q01DX028 (sc), vehicle: saline): 157 % of control
T/C [1]: 102 % of control and 115 % of control
T/C (dose: 2.7 mg/kg/injection, schedule: Q01DX028 (sc), vehicle: saline): 121 % of control
T/C [2]: 94 % of control and 100 % of control
T/C (dose: 6.0 mg/kg/injection, schedule: Q01DX028 (sc), vehicle: saline): 94 % of control

COC1=C(N)C(=O)c2nc(-c3nc(C(=O)O)c(C)c(-c4ccc(OC)c(OC)c4O)c3N)ccc2C1=O
T/C (dose: 0.14 mg/kg/injection, schedule: Q01DX028 (sc), vehicle: other): 100 % of control
T/C (dose: 0.23 mg/kg/injection, schedule: Q01DX028 (sc), vehicle: other): 113 % of control
T/C (dose: 0.39 mg/kg/injection, schedule: Q01DX028 (sc), vehicle: other): 115 % of control
T/C (dose: 0.65 mg/kg/injection, schedule: Q01DX028 (sc), vehicle: other): 115 % of control
T/C (dose: 1.08 mg/kg/injection, schedule: Q01DX028 (sc), vehicle: other): 94 % of control
T/C (dose: 1.8 mg/kg/injection, schedule: Q01DX028 (sc), vehicle: other): 100 % of control

CCOC(=O)C(Cc1ccc(N(CCCl)CCCl)cc1)NC=O (centres undefined)
T/C (dose: 18.7 mg/kg/injection, schedule: Q01DX028 (sc), vehicle: carboxymethylcellulose (CMC)): 176 % of control
T/C [3]: 184 % of control
T/C [4]: 115 % of control
T/C (dose: 300.0 mg/kg/injection, schedule: Q01DX028 (sc), vehicle: carboxymethylcellulose (CMC)): 92 % of control

Cn1c2ccccc2c(=O)c2c(O)cc3c(c21)C=C(Br)C(C)(C)O3
T/C (dose: 9.38 mg/kg/injection, schedule: Q01DX028 (sc), vehicle: carboxymethylcellulose (CMC)): 97 % of control
T/C (dose: 18.75 mg/kg/injection, schedule: Q01DX028 (sc), vehicle: carboxymethylcellulose (CMC)): 97 % of control
T/C (dose: 37.5 mg/kg/injection, schedule: Q01DX028 (sc), vehicle: carboxymethylcellulose (CMC)): 107 % of control
T/C [3]: 97 % of control
T/C [4]: 95 % of control

CN(C)c1ccc(/C=C2\C=Cc3ccccc32)cc1
T/C (dose: 6.3 mg/kg/injection, schedule: Q01DX028 (sc), vehicle: carboxymethylcellulose (CMC)): 102 % of control
T/C (dose: 12.5 mg/kg/injection, schedule: Q01DX028 (sc), vehicle: carboxymethylcellulose (CMC)): 102 % of control
T/C (dose: 25.0 mg/kg/injection, schedule: Q01DX028 (sc), vehicle: carboxymethylcellulose (CMC)): 102 % of control
T/C (dose: 50.0 mg/kg/injection, schedule: Q01DX028 (sc), vehicle: carboxymethylcellulose (CMC)): 97 % of control
T/C (dose: 100.0 mg/kg/injection, schedule: Q01DX028 (sc), vehicle: carboxymethylcellulose (CMC)): 94 % of control

O=c1ccc2ccc(O)cc2o1
T/C (dose: 266.0 mg/kg/injection, schedule: Q01DX028 (sc), vehicle: carboxymethylcellulose (CMC)): 102 % of control
T/C (dose: 400.0 mg/kg/injection, schedule: Q01DX028 (sc), vehicle: carboxymethylcellulose (CMC)): 97 % of control
T/C (dose: 600.0 mg/kg/injection, schedule: Q01DX028 (sc), vehicle: carboxymethylcellulose (CMC)): 97 % of control

COc1cc2oc(=O)ccc2cc1C(=O)CC(C)C
T/C (dose: 125.0 mg/kg/injection, schedule: Q01DX028 (sc), vehicle: carboxymethylcellulose (CMC)): 102 % of control
T/C (dose: 250.0 mg/kg/injection, schedule: Q01DX028 (sc), vehicle: carboxymethylcellulose (CMC)): 100 % of control
T/C (dose: 500.0 mg/kg/injection, schedule: Q01DX028 (sc), vehicle: carboxymethylcellulose (CMC)): 100 % of control

O=c1ccc2cc(O)c(O)cc2o1
T/C (dose: 31.0 mg/kg/injection, schedule: Q01DX028 (sc), vehicle: steriod suspending solution): 119 % of control
T/C (dose: 62.0 mg/kg/injection, schedule: Q01DX028 (sc), vehicle: steriod suspending solution): 115 % of control

Cn1cnc([N+](=O)[O-])c1Sc1nc(N)nc2nc[nH]c12
T/C (dose: 0.5 mg/kg/injection, schedule: Q01DX028 (sc), vehicle: carboxymethylcellulose (CMC)): 97 % of control
T/C (dose: 1.0 mg/kg/injection, schedule: Q01DX028 (sc), vehicle: carboxymethylcellulose (CMC)): 117 % of control
T/C (dose: 4.0 mg/kg/injection, schedule: Q01DX028 (sc), vehicle: carboxymethylcellulose (CMC)): 100 % of control

CN(N=O)C(N)=O
T/C (dose: 8.4 mg/kg/injection, schedule: Q01DX028 (sc), vehicle: saline): 114 % of control
T/C (dose: 14.0 mg/kg/injection, schedule: Q01DX028 (sc), vehicle: saline): 150 % of control
T/C (dose: 39.0 mg/kg/injection, schedule: Q01DX028 (sc), vehicle: saline): 116 % of control
T/C (dose: 65.0 mg/kg/injection, schedule: Q01DX028 (sc), vehicle: saline): 100 % of control

CCOC(=O)c1c[nH]c2ccc(N(CCCl)CCCl)cc12
T/C (dose: 23.0 mg/kg/injection, schedule: Q01DX028 (sc), vehicle: carboxymethylcellulose (CMC)): 112 % of control
T/C (dose: 39.0 mg/kg/injection, schedule: Q01DX028 (sc), vehicle: carboxymethylcellulose (CMC)): 110 % of control
T/C (dose: 65.0 mg/kg/injection, schedule: Q01DX028 (sc), vehicle: carboxymethylcellulose (CMC)): 89 % of control
T/C (dose: 108.0 mg/kg/injection, schedule: Q01DX015 (sc), vehicle: carboxymethylcellulose (CMC)): 97 % of control
T/C (dose: 108.0 mg/kg/injection, schedule: Q01DX028 (sc), vehicle: carboxymethylcellulose (CMC)): 87 % of control

O=c1[nH]cc(F)c(=O)[nH]1
T/C [1]: 122 % of control
T/C (dose: 3.0 mg/kg/injection, schedule: Q01DX024 (sc), vehicle: saline): 109 % of control
T/C [2]: 155 % of control
T/C (dose: 5.8 mg/kg/injection, schedule: Q01DX001 (sc), vehicle: saline): 105 % of control
T/C (dose: 5.8 mg/kg/injection, schedule: Q01DX002 (sc), vehicle: saline): 100 % of control
T/C (dose: 5.8 mg/kg/injection, schedule: Q01DX003 (sc), vehicle: saline): 112 % of control
T/C (dose: 5.8 mg/kg/injection, schedule: Q01DX004 (sc), vehicle: saline): 110 % of control
T/C (dose: 6.0 mg/kg/injection, schedule: Q01DX024 (sc), vehicle: saline): 121 % of control
T/C (dose: 6.0 mg/kg/injection, schedule: Q## X008 (sc), vehicle: saline): 104 % of control
T/C (dose: 6.0 mg/kg/injection, schedule: Q## X012 (sc), vehicle: saline): 114 % of control
T/C (dose: 8.0 mg/kg/injection, schedule: Q01DX028 (sc), vehicle: saline): 251 % of control
T/C (dose: 9.6 mg/kg/injection, schedule: Q01DX001 (sc), vehicle: saline): 110 % of control
T/C (dose: 9.6 mg/kg/injection, schedule: Q01DX002 (sc), vehicle: saline): 112 % of control
T/C (dose: 9.6 mg/kg/injection, schedule: Q01DX003 (sc), vehicle: saline): 120 % of control
T/C (dose: 9.6 mg/kg/injection, schedule: Q01DX004 (sc), vehicle: saline): 112 % of control
T/C (dose: 12.0 mg/kg/injection, schedule: Q01DX024 (sc), vehicle: saline): 214 % of control
T/C (dose: 12.0 mg/kg/injection, schedule: Q## X008 (sc), vehicle: saline): 117 % of control
T/C (dose: 12.0 mg/kg/injection, schedule: Q## X012 (sc), vehicle: saline): 117 % of control
T/C (dose: 16.0 mg/kg/injection, schedule: Q01DX001 (sc), vehicle: saline): 115 % of control
T/C (dose: 16.0 mg/kg/injection, schedule: Q01DX002 (sc), vehicle: saline): 117 % of control
T/C (dose: 16.0 mg/kg/injection, schedule: Q01DX028 (sc), vehicle: saline): 155 % of control
T/C (dose: 24.0 mg/kg/injection, schedule: Q## X012 (sc), vehicle: saline): 156 % of control
T/C (dose: 26.7 mg/kg/injection, schedule: Q01DX001 (sc), vehicle: saline): 120 % of control
T/C (dose: 26.7 mg/kg/injection, schedule: Q01DX002 (sc), vehicle: saline): 122 % of control
T/C (dose: 26.7 mg/kg/injection, schedule: Q01DX004 (sc), vehicle: saline): 157 % of control
T/C (dose: 32.0 mg/kg/injection, schedule: Q01DX028 (sc), vehicle: saline): 93 % of control
T/C (dose: 44.5 mg/kg/injection, schedule: Q01DX003 (sc), vehicle: saline): 107 % of control
T/C (dose: 44.5 mg/kg/injection, schedule: Q01DX004 (sc), vehicle: saline): 120 % of control
T/C (dose: 48.0 mg/kg/injection, schedule: Q01DX024 (sc), vehicle: saline): 102 % of control
T/C (dose: 96.0 mg/kg/injection, schedule: Q## X008 (sc), vehicle: saline): 95 % of control
T/C (dose: 96.0 mg/kg/injection, schedule: Q## X012 (sc), vehicle: saline): 90 % of control
